Data on five compounds can be found in patent US8546395B2, “6-cycloamino-3-(1H-pyrrolo[2,3-b]pyridin-4-yl)imidazo[1,2-b]pyridazine derivatives, preparation thereof and therapeutic use thereof” (Sanofi, priority 2008, dated 2013).

As a reminder, the IC50 is the concentration needed to halve the response being measured. Usually melting point stands for the temperature of the solid-liquid transition.

The target in one series is T1, human CK1 delta (Homo sapiens, UniProt P48730).
T1 construct: purchased Invitrogen Corporation PV3665
T1 sequence (P48730 whole entry): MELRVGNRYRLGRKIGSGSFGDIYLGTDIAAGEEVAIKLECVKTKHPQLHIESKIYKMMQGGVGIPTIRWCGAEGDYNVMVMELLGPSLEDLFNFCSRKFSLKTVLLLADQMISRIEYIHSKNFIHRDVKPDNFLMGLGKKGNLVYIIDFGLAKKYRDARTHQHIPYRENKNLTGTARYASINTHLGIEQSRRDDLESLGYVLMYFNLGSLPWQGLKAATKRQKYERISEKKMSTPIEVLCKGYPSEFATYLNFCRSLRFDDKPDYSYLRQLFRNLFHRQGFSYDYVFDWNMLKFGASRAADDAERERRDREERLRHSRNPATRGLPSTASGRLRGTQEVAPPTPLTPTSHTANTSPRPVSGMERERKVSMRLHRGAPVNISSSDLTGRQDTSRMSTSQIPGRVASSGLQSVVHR
Kind of series: FRET fluorescence test (Z'Lyte kinase assay Kit), peptide substrate SER/THR 11. The series is classed as biochemical. To be noted: peptide substrate 2 μM, ATP at 4 times the KM. The text has this: The capacity of the compounds of the invention to inhibit the phosphorylation of casein by casein kinase 1 epsilon and delta may be evaluated using a FRET (“Fluorescence Resonance Energy Transfer) fluorescence test with the aid of the “Z'Lyte™ kinase assay Kit” (reference PV3670; Invitrogen Corporation™) according to the manufacturer's instructions.
The casein kinases 1 used are obtained from Invitrogen Corporation (human CK1 epsilon PV3500 and human CK1 delta PV3665).
A peptide substrate, labelled at both ends with a fluorophor donor group (coumarin) and a fluorophor acceptor group (fluorescein) constituting a FRET system is phosphorylated in the presence of ATP by casein kinase 1 epsilon or delta in the presence of increasing concentrations of compounds of the invention.
The mixture is treated with a site-specific protease that specifically cleaves the peptide substrate to form two fluorescent fragments having a large fluorescence emission ratio.
The fluorescence observed is thus related to the capacity of the products of the invention to inhibit the phosphorylation of the peptide substrate by casein kinase 1 epsilon or casein kinase 1 delta.
The compounds of the invention are dissolved at different concentrations starting with a 10 mM stock solution in DMSO diluted in a buffer containing 50 mM HEPS, pH 7.5, 1 m MEGTA, 0.01% Brij-35, 10 mM MgCl2 for casein kinase 1 epsilon and supplemented with Trizma Base (50 mM), pH 8.0, and NaN3 (0.01% final) for casein kinase 1 delta.
The phosphorylation of the peptide substrate SER/THR 11 obtained from Invitrogen Corporation™ is performed at a final concentration of 2 μM. The ATP concentration is 4 times the KM, this value being 2 μM for casein kinase 1 epsilon and 4 μM for casein kinase 1 delta.
The emitted fluorescence is measured at wavelengths of 445 and 520 nm (excitation at 400 nm).

Series [1] concerns the target T2, casein kinase 1 epsilon (CK1 epsilon) (Homo sapiens, UniProt P49674).
T2 construct: Invitrogen Corporation (as an alternative)
Kind of series: Filter-plate assay of ATP-33P for CK1 epsilon inhibitors (phosphorylation of casein). To be noted: casein substrate, ATP-33P with 10 μM cold ATP, 2 hours at ambient temperature. The series is classed as biochemical. On the procedure:
The capacity of the compounds of the invention to inhibit the phosphorylation of casein by casein kinase 1 epsilon and delta may be evaluated according to the procedure described in US 2005/0131012.
Filter-Plate Assay of ATP-^33P for the Screening of CK1 Epsilon Inhibitors:
The effect of the compounds on inhibition of the phosphorylation of casein by the enzyme casein kinase 1 epsilon (CK1 epsilon) is measured, using a casein assay with filtration of ATP-^33P in vitro.
Casein kinase 1 epsilon (0.58 mg/ml) is obtained via fermentation and purification processes performed according to methods that are well known to those skilled in the art, or may also be obtained from Invitrogen Corporation™ (human CK1 epsilon).
The compounds are tested at five different concentrations so as to generate IC50 values, i.e. the concentration at which a compound is capable of inhibiting the enzymatic activity by 50%, or alternatively the percentage of inhibition at a concentration of 10 micromolar.
“U”-bottomed Falcon plates are prepared by placing 5 μL of solutions of the compounds according to the invention at concentrations of 10, 1, 0.1, 0.01 or 0.001 μM in various wells. The solutions of the compounds according to the invention at these various concentrations are prepared by diluting in a test buffer (50 mM Tris, pH 7.5, […], 2 mM DTT and 1 mM EGTA) a stock solution in DMSO at a concentration of 10 mM. Next, 5 μL of dephosphorylated casein are added to a final concentration of 0.2 μg/μL, 20 μl of CK1 epsilon to a final concentration of 3 ng/μl, and 20 μl of ATP-^33P to a final concentration of 0.02 μCi/μl mixed with cold ATP (10 μM final—approximately 2×10^6 CPM per well). The final total test volume per well is equal to 50 μl.
The “U”-bottomed Falcon® test plate mentioned above is vortexed, and then incubated at ambient temperature for 2 hours. After 2 hours, the reaction is stopped by adding an ice-cold solution of 65 μl of ATP (2 mM) prepared in test buffer.
100 μl of the reaction mixture are then transferred from the “U”-bottomed Falcon® plate into Millipore® MAPH filter plates, preimpregnated with 25 μl of ice-cold 100% TCA. […]
The plates are left to dry overnight at ambient temperature. […] The radiation emitted by each well is then measured for 2 minutes in a Packard® Topcount NXT scintillation counter, in which the values of CPM/well are measured.
The percentage inhibition of the capacity of the enzyme to phosphorylate the substrate (casein) is determined for each concentration of compound tested. These inhibition data expressed as percentages are used to calculate the IC50 value for each compound compared with the controls.
The kinetic studies determined the KM value for ATP as being 21 μM in this test system.

Series [2] has as its system Mper1-luc Rat-1 (P2C4) fibroblasts. Kind of series: Circadian cell assay (mPer1-luciferase reporter, period prolongation). The series is classed as cell-based. The conditions noted are these: effective concentration that induced a 1-hour prolongation of the circadian period, interpolated from hyperbolic curve. The procedure: Experimental Protocols for Circadian Cell Assay
Mper1-luc Rat-1 (P2C4) fibroblast cultures were prepared by dividing the cultures every 3-4 days (approximately 10-20% of confluence) on 150 cm^2 degassed polystyrene tissue culture flasks (Falcon® #35-5001) and maintained in growth medium [EMEM (Celigro #10-010-CV); 10% foetal bovine serum (FBS; Gibco #16000-044); and 50 I.U./ml of penicillin-streptomycin (Celigro #30-001-CI)] at 37° C. and under 5% CO2.
Cells obtained from Rat-1 fibroblast cultures at 30-50% of confluence as described above were co-transfected with vectors containing the selection marker for resistance to zeocin for a stable transfection and a luciferase reporter gene controlled by the mPer-1 promoter. After 24 to 48 hours, the cultures were divided on 96-well plates and maintained in growth medium supplemented with 50-100 μg/ml of zeocin (Invitrogen® #45-0430) for 10-14 days. The zeocin-resistant stable transfectants were evaluated for the expression of the reporter by adding 100 μM luciferin (Promega® #E1603®) to the growth medium and by assaying the luciferase activity on a TopCount scintillation counter (Packard Model #C384V00). The Rat-1 cell clones expressing both zeocin resistance and lucerifase activity controlled by mPer1 were serum-shock synchronized with 50% horse serum [HS (Gibco® #16050-122)] and the activity of the circadian reporter was evaluated. The P2C4 clone of Mper1-luc Rat-1 fibroblasts was selected to test the compound. Mper1-luc Rat-1 ([…]) fibroblasts at 40-50% of confluence, obtained according to the protocol described above, were plated out onto 96-well opaque tissue culture plates (Perkin Elmer® #6005680). […]
The period analysis was performed either by determining the interval between the relative light emission minima over several days or by Fourier transform. […] The data were analysed by adjusting a hyperbolic curve to the data expressed as change of period (y-axis) as a function of the concentration of the test compound (x-axis) in the XLfit™ software and the CE Delta (t+1 h) was interpolated from this curve.
In general terms: A reporter such as luciferase makes a cellular process visible.

T2 sequence (P49674 whole entry): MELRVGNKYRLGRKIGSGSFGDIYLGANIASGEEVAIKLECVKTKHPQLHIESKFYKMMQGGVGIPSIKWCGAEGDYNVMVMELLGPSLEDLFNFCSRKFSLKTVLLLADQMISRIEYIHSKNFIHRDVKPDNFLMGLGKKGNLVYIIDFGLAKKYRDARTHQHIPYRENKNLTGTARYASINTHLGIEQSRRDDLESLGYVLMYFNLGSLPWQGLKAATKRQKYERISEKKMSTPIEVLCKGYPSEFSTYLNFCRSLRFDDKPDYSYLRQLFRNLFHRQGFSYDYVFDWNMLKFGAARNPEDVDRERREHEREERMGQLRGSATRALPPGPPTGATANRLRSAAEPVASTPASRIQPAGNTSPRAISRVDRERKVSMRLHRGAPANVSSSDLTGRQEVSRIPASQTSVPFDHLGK

`CC(C)(O)CN1CCN(c2ccc3nc(-c4ccc(F)cc4)c(-c4ccnc5[nH]ccc45)n3n2)CC1` [Compound 20, 1-{4-[2-(4-Fluorophenyl)-3-(1H-pyrrolo[2,3-b]pyridin-4-yl)imidazo[1,2-b]pyridazin-6-yl]piperazin-1-yl}-2-methylpropan-2-ol] came in with a melting point of 273 to 276 °C. Moreover, the IC50 on human CK1 delta is 30 to 42 nM.

Consider `Fc1ccc(-c2nc3ccc(N4CCC5(CCCNC5)CC4)nn3c2-c2ccnc3[nH]ccc23)cc1` [Compound 35, 9-[2-(4-Fluorophenyl)-3-(1H-pyrrolo[2,3-b]pyridin-4-yl)imidazo[1,2-b]pyridazin-6-yl]-2,9-diazaspiro[5.5]undecane], for which, in series [1], the IC50 is 6 nM. Moreover, the “CE Delta (t + 1 h)” value in series [2] amounted to 305 nM.

For the compound `C[C@@H]1CN(c2ccc3nc(-c4ccc(F)cc4)c(-c4ccnc5[nH]ccc45)n3n2)CCN1` [Compound 6, 2-(4-Fluorophenyl)-6-[(3R)-3-methylpiperazin-1-yl]-3-(1H-pyrrolo[2,3-b]pyridin-4-yl)imidazo[1,2-b]pyridazine], the melting point was 285 to 287 °C. In series [1], the 50% inhibitory concentration (IC50) was in the range of 1 to 2 nM. Besides, the “CE Delta (t + 1 h)” value in series [2] was in the range of 2 to 3 nM.

In turn, `Cc1nc2ccc(N3C[C@@H](C)N[C@@H](C)C3)nn2c1-c1ccnc2[nH]ccc12` [Compound 3, 6-[(cis)-3,5-Dimethylpiperazin-1-yl]-2-methyl-3-(1H-pyrrolo[2,3-b]pyridin-4-yl)-imidazo[1,2-b]pyridazine] showed an IC50 in series [1] of 303 nM.

Regarding `Cc1cc(N2C[C@H]3CN(C)C[C@H]3C2)nn2c(-c3ccnc4[nH]ccc34)c(-c3ccc(F)cc3)nc12` [Compound 29, (Cis)-2-(4-fluorophenyl)-8-methyl-6-(5-methyl-hexahydropyrrolo[3,4-c]pyrrol-2(1H)-yl)-3-(1H-pyrrolo[2,3-b]pyridin-4-yl)imidazo[1,2-b]pyridazine], half-maximal inhibition on human CK1 delta (IC50) required 5 nM.
